In patent US11026944B2, “Compositions and methods for treating insomnia” (Eisai R&D Management Co., Ltd., priority 2014, dated 2021):
Where two headings read alike, the source gives them in different places.

Legend:
[1] = Single dose study (001 Study) Part A: plasma PK of compound A; type: in vivo; details: human, healthy subjects (Part A); for AUC from 0 to 24 h / AUC(0-inf) / AUC(0-t) / Cmax / half-life / Tmax: plasma, po; for AUC from 0 to 24 h: read-out: AUC(0-24) Mean(SD); for AUC(0-inf): read-out: AUC(0-inf) Mean(SD); for AUC(0-t): read-out: AUC(0-t) Mean(SD); for Cmax: read-out: Cmax Mean(SD); for half-life: read-out: t1/2 Median (converted); for Tmax: read-out: tmax Median; for concentration at 9 h: read-out: C9 Mean(SD)
Source text: This was a randomized, double-blind, placebo- and active-controlled, sequential, single-dose study. The study consisted of two parts, Part A (healthy subjects) and Part B (otherwise healthy subjects with primary insomnia).
(§1) For Part A, 64 healthy subjects were enrolled into cohorts sequentially in a gradual dose escalation manner, to receive either compound A or placebo, and stratified by gender. Each cohort comprised six compound A- and two placebo-treated subjects. All study drugs were administered as single doses using one or more compound A-capsules or compound A-matched placebo capsules due to the test dose. After screening, subjects underwent baseline procedures and randomization on Day-2. Subjects were dosed on Day 1 in the morning after an overnight fast, 1 hour after lights-on. PK blood samples were collected at prespecified timepoints, and PD assessments were performed. Subjects were administered assessments on Day 1 predose and every 2 hours from 2 to 12 hours postdose, and each morning on Days 2 to 6.
For subjects in Part A, Blood samples for determination of plasma concentrations of compound A were collected on Day 1 predose and at 0.25 (15 minutes), 0.5 (30 minutes), 1, 2, 3, 4, 5, 6, 9, 12, 24, 48, 72, 96, 120, 168, and 240 hours after oral administration of compound A, but collected up to 72 hours in the first three cohorts (1, 2.5 and 5 mg compound A groups). PK samples were collected preferentially via an indwelling venous catheter for the first 12 hours and by direct venipuncture thereafter.
Plasma concentrations of compound A were measured using a validated liquid chromatography-mass spectrometry/mass spectrometry (LC-MS/MS) assay.

healthy subjects = assay: 001 Study Part A: sleepiness measures KSS, DSST, PVT; type: in vivo, human
Experimental: as §1
These assessments included the Karolinska Sleepiness Scale (KSS), Digit Symbol Substitution Test (DSST), and Psychomotor Vigilance Test (PVT) in order to assess daytime sleepiness, level of alertness, and ability to concentrate. Waketime Questionnaires were administered after PD assessments each morning on Days 1 to Day 6. Time and duration of naps was recorded on Days 1 and 2. Safety was monitored throughout the study. […]

[2] = Single daily dose PK in human subjects (summary statements); type: in vivo; details: plasma, oral; for Cmax: read-out: mean maximum plasma concentration (Cmax); for half-life: read-out: mean t1/2 (converted); for Tmax: read-out: mean time to maximum plasma concentration (tmax)

Molecule Cc1ncc(OC[C@@]2(c3cccc(F)c3)C[C@H]2C(=O)Nc2ccc(F)cn2)c(C)n1 [Compound A, (1R,2 S)-2-(((2,4-dimethylpyrimidin-5-yl)oxy)methyl)-2-(3-fluorophenyl)-N-(5-fluoropyridin-2-yl) cyclopropanecarboxamide] has an AUC from 0 to 24 h ([1]; 1 mg, single oral 1 mg) of ~17.2 ng·h/mL, an AUC(0-inf) ([1]; 1 mg, single oral 1 mg) of ~19.8 ng·h/mL and an AUC(0-t) ([1]; 1 mg, single oral 1 mg) of ~19.1 ng·h/mL. For the same molecule, the Cmax ([1]; 1 mg, single oral 1 mg) was ~5.3 ng/mL, the half-life ([1]; 1 mg, single oral 1 mg) was ~12.7 h and the Tmax ([1]; 1 mg, single oral 1 mg) was ~1 h. The AUC from 0 to 24 h ([1]; 2.5 mg, single oral 2.5 mg) was 56.8 ng·h/mL, the AUC(0-inf) ([1]; 2.5 mg, single oral 2.5 mg) was 79.7 ng·h/mL and the AUC(0-t) ([1]; 2.5 mg, single oral 2.5 mg) was 80.2 ng·h/mL. The Cmax ([1]; 2.5 mg, single oral 2.5 mg) was 15.9 ng/mL, the half-life ([1]; 2.5 mg, single oral 2.5 mg) was 30.1 h and the Tmax ([1]; 2.5 mg, single oral 2.5 mg) was 1.01 h. For the same molecule, the AUC from 0 to 24 h ([1]; 5 mg, single oral 5 mg) was 94.6 ng·h/mL, the AUC(0-inf) ([1]; 5 mg, single oral 5 mg) was 149 ng·h/mL and the AUC(0-t) ([1]; 5 mg, single oral 5 mg) was 128 ng·h/mL. For the same molecule, the Cmax ([1]; 5 mg, single oral 5 mg) was 22.7 ng/mL, the half-life ([1]; 5 mg, single oral 5 mg) was 31.3 h and the Tmax ([1]; 5 mg, single oral 5 mg) was 1.55 h. For the same molecule, the AUC from 0 to 24 h ([1]; 10 mg, single oral 10 mg) was 159 ng·h/mL, the AUC(0-inf) ([1]; 10 mg, single oral 10 mg) was 311 ng·h/mL and the AUC(0-t) ([1]; 10 mg, single oral 10 mg) was 284 ng·h/mL. It also gave a Cmax ([1]; 10 mg, single oral 10 mg) of 36 ng/mL, a half-life ([1]; 10 mg, single oral 10 mg) of 56.1 h and a Tmax ([1]; 10 mg, single oral 10 mg) of 1 h. It also gave an AUC from 0 to 24 h ([1]; 25 mg, single oral 25 mg) of 654 ng·h/mL, an AUC(0-inf) ([1]; 25 mg, single oral 25 mg) of 1540 ng·h/mL and an AUC(0-t) ([1]; 25 mg, single oral 25 mg) of 1450 ng·h/mL. The Cmax ([1]; 25 mg, single oral 25 mg) was 108 ng/mL, the half-life ([1]; 25 mg, single oral 25 mg) was 65.5 h and the Tmax ([1]; 25 mg, single oral 25 mg) was 2.01 h. It also gave an AUC from 0 to 24 h ([1]; 50 mg, single oral 50 mg) of 1110 ng·h/mL, an AUC(0-inf) ([1]; 50 mg, single oral 50 mg) of 2150 ng·h/mL and an AUC(0-t) ([1]; 50 mg, single oral 50 mg) of 2080 ng·h/mL. The Cmax ([1]; 50 mg, single oral 50 mg) was 168 ng/mL, the half-life ([1]; 50 mg, single oral 50 mg) was 51.9 h and the Tmax ([1]; 50 mg, single oral 50 mg) was 2.53 h. It also gave an AUC from 0 to 24 h ([1]; 100 mg, single oral 100 mg) of 1930 ng·h/mL, an AUC(0-inf) ([1]; 100 mg, single oral 100 mg) of 4740 ng·h/mL and an AUC(0-t) ([1]; 100 mg, single oral 100 mg) of 4490 ng·h/mL. For the same molecule, the Cmax ([1]; 100 mg, single oral 100 mg) was 264 ng/mL, the half-life ([1]; 100 mg, single oral 100 mg) was 59.8 h and the Tmax ([1]; 100 mg, single oral 100 mg) was 3 h. The AUC from 0 to 24 h ([1]; 200 mg, single oral 200 mg) was 4080 ng·h/mL, the AUC(0-inf) ([1]; 200 mg, single oral 200 mg) was 10500 ng·h/mL and the AUC(0-t) ([1]; 200 mg, single oral 200 mg) was 9840 ng·h/mL. For the same molecule, the Cmax ([1]; 200 mg, single oral 200 mg) was 431 ng/mL, the half-life ([1]; 200 mg, single oral 200 mg) was 65.2 h and the Tmax ([1]; 200 mg, single oral 200 mg) was 3 h. For the same molecule, the concentration at 9 h ([1]; plasma at 9 h after single oral 1 mg) was 0.384 ng/mL, the concentration at 9 h ([1]; plasma at 9 h after single oral 2.5 mg) was 1.54 ng/mL and the concentration at 9 h ([1]; plasma at 9 h after single oral 5 mg) was 2.68 ng/mL. The concentration at 9 h ([1]; plasma at 9 h after single oral 10 mg) was 4.6 ng/mL, the concentration at 9 h ([1]; plasma at 9 h after single oral 25 mg) was 21.9 ng/mL and the concentration at 9 h ([1]; plasma at 9 h after single oral 50 mg) was 39.3 ng/mL. The concentration at 9 h ([1]; plasma at 9 h after single oral 100 mg) was 86 ng/mL, the concentration at 9 h ([1]; plasma at 9 h after single oral 200 mg) was 199 ng/mL and the “time of maximal pharmacodynamic response on KSS, DSST, PVT” value (healthy subjects; postdose, coinciding with Cmax) was ~2 h. For the same molecule, the “measures of sleepiness (KSS, DSST, PVT)” value (healthy subjects; single morning doses 1-200 mg) was “general dose-response relationship”, the AUC(0-t) ([2]; 2.5 mg, single 2.5 mg daily dose, read-out: mean AUC(0-24)) was 57 to 60 ng·h/mL and the AUC(0-t) ([2]; 2.5 mg, single 2.5 mg daily dose, read-out: mean AUC(0-t)) was 80 to 95 ng·h/mL. The AUC(0-t) ([2]; 5 mg, single 5 mg daily dose, read-out: mean AUC(0-24)) was 95 to 110 ng·h/mL, the AUC(0-t) ([2]; 5 mg, single 5 mg daily dose, read-out: mean AUC(0-t)) was ~128 ng·h/mL and the AUC(0-t) ([2]; 10 mg, single 10 mg daily dose, read-out: mean AUC(0-24)) was 160 to 190 ng·h/mL. It also gave an AUC(0-t) ([2]; 10 mg, single 10 mg daily dose, read-out: mean AUC(0-t)) of 280 to 510 ng·h/mL, an AUC(0-inf) ([2]; single 2.5 mg daily dose) of 80 to 103 ng·h/mL and a Cmax ([2]; single 2.5 mg daily dose) of 10 to 18 ng/mL. For the same molecule, the half-life ([2]; single 2.5 mg daily dose) was 30 to 37 h, the Tmax ([2]; single 2.5 mg daily dose) was 1 to 2 h and the AUC(0-inf) ([2]; single 5 mg daily dose) was ~150 ng·h/mL. For the same molecule, the Cmax ([2]; single 5 mg daily dose) was 19 to 23 ng/mL, the half-life ([2]; single 5 mg daily dose) was ~31 h and the Tmax ([2]; single 5 mg daily dose) was 1 to 2 h. It also gave an AUC(0-inf) ([2]; single 10 mg daily dose) of 310 to 530 ng·h/mL, a Cmax ([2]; single 10 mg daily dose) of 30 to 58 ng/mL and a half-life ([2]; single 10 mg daily dose) of 56 to 60 h. The Tmax ([2]; single 10 mg daily dose) was 1 to 3.25 h.
